According to US7932255B2, “2-aminocarbonyl substituted piperazine or diaza-cyclic compounds as apoptosis protein inhibitors (lap) modulators” (Novartis AG, priority 2006, dated 2011):
pIC50: −log10 of the molar value.

These molecules were tested against T1, XIAP (Homo sapiens, UniProt P98170) (assay: Disruption of the Smac peptide-(XIAP)BIR3 protein-protein interaction (Tables 2 and 3)). Details: not given.
T1 construct: GST
Type: binding
Procedure: IC50 values for Series A compounds for XIAP. An assay capable of measuring disruption of the Smac peptide-(XIAP)BIR3 protein-protein interaction is established in the art as described in Example 2. In this assay IAP Inhibitor compounds compete with an immobilized Smac peptide for occupancy of the BIR3 binding pocket of XIAP. The rationale for this strategy results from the mutually exclusive nature of either Caspase 9 or Smac binding to the BIR3 pocket.
Assays are performed and IC50 values are calculated as follows: […]
IC50 values are calculated by logarithmic regression analysis of the percentage inhibition of each compound at 4 concentrations (usually 3- or 10-fold dilution series starting at 10 μM). In each experiment, the actual inhibition by reference compound is used for normalization of IC50 values to the basis of an average value of the reference inhibitor: Normalized IC50=measured IC50 average ref. IC50/measured ref. IC50
Activity determinations of compounds herein using the testing method described herein and as are well known in the art, are used with the following test compounds of formula (I). […] “Activity” as used herein is defined as having IC50 values for IAP target inhibition of less than 10 μM. Specifically, in the table:
IC50 values for Series B compounds are provided for XIAP. Assays are performed as described above using methods well known in the art.

T1 sequence (P98170 248-358 limits assumed, species assumed): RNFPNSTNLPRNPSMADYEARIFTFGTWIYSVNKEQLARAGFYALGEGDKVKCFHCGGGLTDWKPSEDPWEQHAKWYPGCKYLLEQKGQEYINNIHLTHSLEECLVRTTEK

SMILES | pIC50
CN[C@@H](C)C(=O)N[C@H](C(=O)N1CCN(C(=O)Oc2ccc(F)cc2)C[C@H]1C(=O)NC1CCCc2ccccc21)C(C)C (stereo partly drawn) [Compound 34, (S)-4-[(S)-3-Methyl-2-((S)-2-methylamino-propionylamino)-butyryl]-3-(1,2,3,4-tetrahydro-naphthalen-1-ylcarbamoyl)-piperazine-1-carboxylic acid 4-fluoro-phenyl ester] | > 5.00

Same assay, conditions: Series A compounds, Table 2; read-out: XIAP IC50

SMILES | pIC50
CCCCN1CCN(C(=O)[C@@H](NC(=O)[C@H](C)NC)C(C)C)[C@H](C(=O)NC2CCCc3ccccc32)C1 (stereo partly drawn) [Compound 33, (S)-4-Butyl-1-[(S)-3-methyl-2-((S)-2-methylamino-propionylamino)-butyryl]-piperazine-2-carboxylic acid (1,2,3,4-tetrahydro-naphthalen-1-yl)-amide] | > 5.00
CN[C@@H](C)C(=O)N[C@H](C(=O)N1CCN(S(C)(=O)=O)C[C@H]1C(=O)NC1CCCc2ccccc21)C(C)C (stereo partly drawn) [Compound 30, (S)-4-Methanesulfonyl-1-[(S)-3-methyl-2-((S)-2-methylamino-propionylamino)-butyryl]-piperazine-2-carboxylic acid (1,2,3,4-tetrahydro-naphthalen-1-yl)-amide] | > 5.00
CN[C@@H](C)C(=O)N[C@H](C(=O)N1CCN(Cc2cccc(OC)c2)C[C@H]1C(=O)NC1CCCc2ccccc21)C(C)C (stereo partly drawn) [Compound 29, (S)-4-(3-Methoxy-benzyl)-1-[(S)-3-methyl-2-((S)-2-methylamino-propionylamino)-butyryl]-piperazine-2-carboxylic acid (1,2,3,4-tetrahydro-naphthalen-1-yl)-amide] | > 5.00
CN[C@@H](C)C(=O)N[C@H](C(=O)N1CCNC[C@H]1C(=O)NC1CCCc2ccccc21)C1CCCCC1 (stereo partly drawn) [Compound 59, (S)-1-[(S)-2-Cyclohexyl-2-((S)-2-methylamino-propionylamino)-acetyl]-piperazine-2-carboxylic acid (1,2,3,4-tetrahydro-naphthalen-1-yl)-amide] | > 5.00
CC(C)[C@H](NC(=O)[C@H](C)N(C)C(=O)OC(C)(C)C)C(=O)N1CCN(Cc2ccccc2)C[C@H]1C(=O)N[C@@H]1CCCc2ccccc21 [Compound 57, [(S)-1-((S)-1-{(S)-4-Benzyl-2-[(R)-(1,2,3,4-tetrahydro-naphthalen-1-yl)carbamoyl]-piperazine-1-carbonyl}-2-methyl-propylcarbamoyl)-ethyl]-methyl-carbamic acid tert-butyl ester] | < 5.00
CN[C@@H](C)C(=O)N[C@H](C(=O)N1CCN(C(=O)NCc2ccccc2)C[C@H]1C(=O)NC1CCCc2ccccc21)C(C)C (stereo partly drawn) [Compound 5, (S)-4-[(S)-3-Methyl-2-((S)-2-methylamino-propionylamino)-butyryl]-piperazine-1,3-dicarboxylic acid 1-benzylamide 3-[(1,2,3,4-tetrahydro-naphthalen-1-yl)-amide]] | > 5.00
CN[C@@H](C)C(=O)N[C@H](C(=O)N1CCN(Cc2ccccn2)C[C@H]1C(=O)NC1CCCc2ccccc21)C(C)C (stereo partly drawn) [Compound 49, (S)-1-[(S)-3-Methyl-2-((S)-2-methylamino-propionylamino)-butyryl]-4-pyridin-2-ylmethyl-piperazine-2-carboxylic acid (1,2,3,4-tetrahydro-naphthalen-1-yl)-amide] | > 5.00
CN[C@@H](C)C(=O)N[C@H](C(=O)N1CCN(Cc2ccccc2)C[C@H]1C(=O)NC1CCCc2ccccc21)C1CCCCC1 (stereo partly drawn) [Compound 55, (S)-4-Benzyl-1-[(S)-2-cyclohexyl-2-((S)-2-methylamino-propionylamino)-acetyl]-piperazine-2-carboxylic acid (1,2,3,4-tetrahydro-naphthalen-1-yl)-amide] | > 5.00
CN[C@@H](C)C(=O)N[C@H](C(=O)N1CCN(C(=O)Nc2ccc(F)cc2)C[C@H]1C(=O)NC1CCCc2ccccc21)C(C)C (stereo partly drawn) [Compound 40, (S)-4-[(S)-3-Methyl-2-((S)-2-methylamino-propionylamino)-butyryl]-piperazine-1,3-dicarboxylic acid 1-[(4-fluoro-phenyl)-amide] 3-[(1,2,3,4-tetrahydro-naphthalen-1-yl)-amide]] | > 5.00
CN[C@@H](C)C(=O)N[C@H](C(=O)N1CCN(Cc2ccccc2)C[C@H]1C(=O)NC1CCCc2ccccc21)C(C)C (stereo partly drawn) [Compound 52, (S)-4-Benzyl-1-[(S)-3-methyl-2-((S)-2-methylamino-propionylamino)-butyryl]-piperazine-2-carboxylic acid (1,2,3,4-tetrahydro-naphthalen-1-yl)-amide] | > 5.00
CN[C@@H](C)C(=O)N[C@H](C(=O)N1CCN(Cc2cccnc2)C[C@H]1C(=O)NC1CCCc2ccccc21)C(C)C (stereo partly drawn) [Compound 3, (S)-1-[(S)-3-Methyl-2-((S)-2-methylamino-propionylamino)-butyryl]-4-pyridin-3-ylmethyl-piperazine-2-carboxylic acid (1,2,3,4-tetrahydro-naphthalen-1-yl)-amide] | > 5.00
CN[C@@H](C)C(=O)N[C@H](C(=O)N1CCN(Cc2ccccc2)C[C@H]1C(=O)NC1CCCc2ccccc21)C(C)C (stereo partly drawn) [Compound 14, (S)-4-Benzyl-1-[(S)-3-methyl-2-((S)-2-methylamino-propionylamino)-butyryl]-piperazine-2-carboxylic acid (1,2,3,4-tetrahydro-naphthalen-1-yl)-amide] | > 5.00
CNC(C)C(=O)NC(C(=O)N1CCN(S(=O)(=O)c2ccccc2)CC1C(=O)NC1CCCc2ccccc21)C(C)C (stereo not drawn) [Compound 2, 4-Benzenesulfonyl-1-[3-methyl-2-(2-methylamino-propionylamino)-butyryl]-piperazine-2-carboxylic acid (1,2,3,4-tetrahydro-naphthalen-1-yl)-amide] | > 5.00
CN[C@@H](C)C(=O)N[C@H](C(=O)N1CCN(CC2CCCCC2)C[C@H]1C(=O)NC1CCCc2ccccc21)C(C)C (stereo partly drawn) [Compound 19, (S)-4-Cyclohexylmethyl-1-[(S)-3-methyl-2-((S)-2-methylamino-propionylamino)-butyryl]-piperazine-2-carboxylic acid (1,2,3,4-tetrahydro-naphthalen-1-yl)-amide] | > 5.00

Same assay, conditions: Series B compounds, Table 3; read-out: XIXP IC50

SMILES | pIC50
CN[C@@H](C)C(=O)N[C@H](C(=O)N1CCN(Cc2ccccc2)C[C@H]1C(=O)NC1CCc2ccccc2C1)C(C)C (stereo partly drawn) [Compound 68, (S)-4-Benzyl-1-[(S)-3-methyl-2-((S)-2-methylamino-propionylamino)-butyryl]-piperazine-2-carboxylic acid (1,2,3,4-tetrahydro-naphthalen-2-yl)-amide] | > 5.00
CN[C@@H](C)C(=O)N[C@H](C(=O)N1CCN(Cc2ccccc2)C[C@H]1C(=O)NCC1CCCCCC1)C(C)C [Compound 77, (S)-4-Benzyl-1-[(S)-3-methyl-2-((S)-2-methylamino-propionylamino)-butyryl]-piperazine-2-carboxylic acid cycloheptylmethyl-amide] | < 5.00
CN[C@@H](C)C(=O)N[C@H](C(=O)N1CCN(Cc2ccccc2)C[C@H]1C(=O)NC(c1ccccc1)c1ccccc1)C(C)C [Compound 64, (S)-4-Benzyl-1-[(S)-3-methyl-2-((S)-2-methylamino-propionylamino)-butyryl]-piperazine-2-carboxylic acid benzhydryl-amide] | > 5.00
CCN(C(=O)[C@@H]1CN(Cc2ccccc2)CCN1C(=O)[C@@H](NC(=O)[C@H](C)NC)C(C)C)C1CCCc2ccccc21 (stereo partly drawn) [Compound 76, (S)-4-Benzyl-1-[(S)-3-methyl-2-((S)-2-methylamino-propionylamino)-butyrl]-piperazine-2-carboxylic acid ethyl-(1,2,3,4-tetrahydro-naphthalen-1-yl)-amide] | > 5.00
CN[C@@H](C)C(=O)N[C@H](C(=O)N1CCN(Cc2ccccc2)C[C@H]1C(=O)NCCCc1ccccc1)C(C)C [Compound 72, (S)-4-Benzyl-1-[(S)-3-methyl-2-((S)-2-methylamino-propionylamino)-butyryl]-piperazine-2-carboxylic acid (3-phenyl-propyl)-amide] | < 5.00
CN[C@@H](C)C(=O)N[C@H](C(=O)N1CCN(Cc2ccccc2)C[C@H]1C(=O)NCCc1ccc(F)cc1)C(C)C [Compound 71, (S)-4-Benzyl-1-[(S)-3-methyl-2-((S)-2-methylamino-propionylamino)-butyryl]-piperazine-2-carboxylic acid [2-(4-fluoro-phenyl)-ethyl]-amide] | > 5.00
CN[C@@H](C)C(=O)N[C@H](C(=O)N1CCN(Cc2ccccc2)C[C@H]1C(=O)NCCc1cccnc1)C(C)C [Compound 66, (S)-4-Benzyl-1-[(S)-3-methyl-2-((S)-2-methylamino-propionylamino)-butyryl]-piperazine-2-carboxylic acid (2-pyridin-3-yl-ethyl)-amide] | < 5.00
CN[C@@H](C)C(=O)N[C@H](C(=O)N1CCN(Cc2ccccc2)C[C@H]1C(=O)NC(Cc1ccccc1)Cc1ccccc1)C(C)C [Compound 80, (S)-4-Benzyl-1-[(S)-3-methyl-2-((S)-2-methylamino-propionylamino)-butyryl]-piperazine-2-carboxylic acid (1-benzyl-2-phenyl-ethyl)-amide] | > 5.00
CN[C@@H](C)C(=O)N[C@H](C(=O)N1CCN(Cc2ccccc2)C[C@H]1C(=O)NCc1cc(F)cc(F)c1)C(C)C [Compound 84, (S)-4-Benzyl-1-[(S)-3-methyl-2-((S)-2-methylamino-propionylamino)-butyryl]-piperazine-2-carboxylic acid 3,5-difluoro-benzylamide] | > 5.00
